# In paper PMC7600351 (Pharmaceutics, 2020):
# Where two headings read alike, the source gives them in different places.
# Tests used:
# ABCG2 = experiment: Induction assay in LS180 cells, ABCG2 mRNA (real-time RT-PCR); assay type: cell-based, human; settings: LS180, 4 days; hydroxychloroquine 1, 2, 10, 20 µM; rifampicin 20 µM; omeprazole 150 µM
# Experimental: (§1) For induction experiments, the human colon adenocarcinoma cell line LS180 (available at ATCC, Manassas, VA, USA) was used. This cell line is an established model for investigating gene inductions mediated by PXR or AhR [25, 28]. Cells were cultured under standard cell culture conditions in DMEM supplemented with 10% FCS, 100 U/mL penicillin, 100 µg/mL streptomycin sulphate, 0.1 mM non-essential amino acids, and 2 mM glutamine.
# (§2) All media were adjusted to the DMSO content of the solution with the highest DMSO content in the respective experiment (0.1%). The experiment was conducted in quintuplicate. RNA was extracted immediately after harvesting the cells and stored at −80 °C until processing.
# (§3) RNA was isolated using the GenElute™ Mammalian Total RNA Miniprep Kit, and cDNA was synthesized with the RevertAid™ H Minus First Strand cDNA Synthesis Kit according to the manufacturer’s instructions. mRNA expression was quantified by real-time RT-PCR with the LightCycler® 480 (Roche Applied Science, Mannheim, Germany) as described previously. […] Data were evaluated via calibrator-normalised relative quantification with efficiency correction using the LightCycler® 480 software version 1.5.1.62 (Roche Applied Science, Mannheim, Germany). Results were expressed as the target/reference ratio divided by the target/reference ratio of the calibrator. The results are therefore corrected for sample inhomogeneities and variance caused by detection. All samples were amplified in duplicate and the mean of the technical duplicate was used for further calculation.
# CYP1A1 = experiment: Induction assay in LS180 cells, CYP1A1 mRNA (real-time RT-PCR); assay type: cell-based, human; settings: LS180, 4 days; hydroxychloroquine 1, 2, 10, 20 µM; omeprazole 150 µM
# Experimental: as §1, §2
# as §3, with “The results are therefore corrected for sample inhomogeneities and variance caused by detection. All samples were amplified in duplicate and the mean of the technical duplicate was used for further calculation.” left out
# CYP1A2 = experiment: Induction assay in LS180 cells, CYP1A2 mRNA (real-time RT-PCR); settings: LS180, 4 days; hydroxychloroquine 1, 2, 10, 20 µM; omeprazole 150 µM
# Experimental: as §1, §2
# as §3, with “The results are therefore corrected for sample inhomogeneities and variance caused by detection. All samples were amplified in duplicate and the mean of the technical duplicate was used for further calculation.” left out
# OATP2B1 [1] = molecular target: T1, OATP2B1 (Homo sapiens, UniProt O94956); experiment: Flow cytometric OATP2B1 inhibition assay (DBF uptake, HEK293 with tetracycline-induced OATP2B1); assay type: cell-based
# T1 construct: expressed in transfected cells; host or cells: HEK293, tetracycline-induced OATP2B1 expression
# T1 sequence (O94956 whole entry): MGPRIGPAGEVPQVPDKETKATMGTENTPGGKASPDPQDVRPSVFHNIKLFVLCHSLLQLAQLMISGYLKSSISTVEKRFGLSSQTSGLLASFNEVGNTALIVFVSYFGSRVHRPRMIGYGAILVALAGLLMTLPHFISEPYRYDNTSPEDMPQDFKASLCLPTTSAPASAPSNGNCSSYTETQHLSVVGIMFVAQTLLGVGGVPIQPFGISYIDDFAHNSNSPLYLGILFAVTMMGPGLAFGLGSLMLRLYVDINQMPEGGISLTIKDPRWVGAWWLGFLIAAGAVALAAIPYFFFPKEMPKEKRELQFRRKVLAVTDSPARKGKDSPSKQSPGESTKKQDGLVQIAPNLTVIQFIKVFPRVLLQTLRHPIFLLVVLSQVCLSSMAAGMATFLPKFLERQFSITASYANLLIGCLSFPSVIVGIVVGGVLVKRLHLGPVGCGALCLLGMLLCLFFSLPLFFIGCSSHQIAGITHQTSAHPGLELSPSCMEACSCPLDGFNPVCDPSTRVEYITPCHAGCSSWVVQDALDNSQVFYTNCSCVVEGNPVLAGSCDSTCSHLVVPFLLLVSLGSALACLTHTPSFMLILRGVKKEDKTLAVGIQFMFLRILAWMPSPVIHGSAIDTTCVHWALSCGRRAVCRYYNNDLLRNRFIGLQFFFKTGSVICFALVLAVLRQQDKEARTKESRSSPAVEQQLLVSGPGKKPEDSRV
# Experimental: As a cell model for human OATP2B1, HEK293 cells over-expressing OATP2B1 in the presence of tetracycline were used. Cells were cultured under standard cell culture conditions with DMEM/Ham’s F12 medium supplemented with 10% FCS, 4 mM glutamine, 100 U/mL penicillin, and 100 µg/mL streptomycin sulphate. To generate OATP2B1 over-expression, cells were treated 72 h before the assay with 1 µg/mL tetracycline. […] Excluding debris, living cells were gated in the forward/sideward scatter by using the unstained sample. […] Uptake in cells with tetracycline induction was normalised to the uptake in cells without induction. Naringin (1 mM) was used as a positive control.
# OATP1B1 = molecular target: T2, OATP1B1 (Homo sapiens, UniProt Q9Y6L6); experiment: Flow cytometric OATP1B1 inhibition assay (8-FcA uptake, HEK-OATP1B1); assay type: cell-based
# T2 construct: expressed in transfected cells; host or cells: HEK293 (HEK-OATP1B1)
# T2 sequence (Q9Y6L6 whole entry): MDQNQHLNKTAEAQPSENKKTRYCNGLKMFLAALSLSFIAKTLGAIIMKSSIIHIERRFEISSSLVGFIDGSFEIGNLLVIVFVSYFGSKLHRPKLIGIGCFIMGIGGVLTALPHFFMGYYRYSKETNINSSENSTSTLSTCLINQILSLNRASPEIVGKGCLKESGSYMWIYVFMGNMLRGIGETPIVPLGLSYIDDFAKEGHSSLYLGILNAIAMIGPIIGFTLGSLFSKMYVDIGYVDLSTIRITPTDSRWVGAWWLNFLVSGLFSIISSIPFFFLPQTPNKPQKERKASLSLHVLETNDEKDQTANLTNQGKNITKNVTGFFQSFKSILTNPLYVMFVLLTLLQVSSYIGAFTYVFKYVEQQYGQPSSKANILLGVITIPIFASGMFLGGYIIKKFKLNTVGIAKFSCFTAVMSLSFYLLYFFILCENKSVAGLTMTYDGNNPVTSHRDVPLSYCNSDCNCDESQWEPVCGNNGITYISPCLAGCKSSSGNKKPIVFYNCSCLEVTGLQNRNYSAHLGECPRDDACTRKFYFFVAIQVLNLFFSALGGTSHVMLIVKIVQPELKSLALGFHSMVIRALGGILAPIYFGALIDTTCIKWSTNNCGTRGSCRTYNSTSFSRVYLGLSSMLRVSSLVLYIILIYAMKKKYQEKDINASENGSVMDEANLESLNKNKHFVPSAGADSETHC
# Experimental: (§4) As cell models for human OATP1B1 and OATP1B3, HEK293, a human embryonic kidney cell line, stably transfected with OATP1B1 (HEK-OATP1B1), OATP1B3 (HEK-OATP1B3), or the empty control vector (HEK293-VC G418) were used. Cells were cultured under standard cell culture conditions with DMEM supplemented with 10% FCS, 2 mM glutamine, 100 U/mL penicillin, 100 µg/mL streptomycin sulphate, and 800 µg/mL G418. Inhibition of the OATPs was quantified by flow cytometry assessing the uptake of 8-FcA into HEK293 cells over-expressing the respective transporter after 10 min incubation and normalised to the control cell line as described previously. Intracellular fluorescence was quantified in a MACSQuant 10 Analyzer (Milteny, Bergisch-Gladbach, Germany) with the 488 nm laser for excitation and the 525 nm bandfilter for emission (FITC channel). Excluding debris, living cells were gated in the forward/sideward scatter by using the unstained sample. For each concentration (0.1–100 µM), 30,000 cells were measured and each experiment was performed in triplicate. Rifampicin (20 µM), a well-known inhibitor of OATP1B1 and OATP1B3, was used as a positive control.
# OATP1B3 [2] = molecular target: T3, OATP1B3 (Homo sapiens, UniProt Q9NPD5); experiment: Flow cytometric OATP1B3 inhibition assay (8-FcA uptake, HEK-OATP1B3); assay type: cell-based
# T3 construct: expressed in transfected cells; host or cells: HEK293 (HEK-OATP1B3)
# T3 sequence (Q9NPD5 whole entry): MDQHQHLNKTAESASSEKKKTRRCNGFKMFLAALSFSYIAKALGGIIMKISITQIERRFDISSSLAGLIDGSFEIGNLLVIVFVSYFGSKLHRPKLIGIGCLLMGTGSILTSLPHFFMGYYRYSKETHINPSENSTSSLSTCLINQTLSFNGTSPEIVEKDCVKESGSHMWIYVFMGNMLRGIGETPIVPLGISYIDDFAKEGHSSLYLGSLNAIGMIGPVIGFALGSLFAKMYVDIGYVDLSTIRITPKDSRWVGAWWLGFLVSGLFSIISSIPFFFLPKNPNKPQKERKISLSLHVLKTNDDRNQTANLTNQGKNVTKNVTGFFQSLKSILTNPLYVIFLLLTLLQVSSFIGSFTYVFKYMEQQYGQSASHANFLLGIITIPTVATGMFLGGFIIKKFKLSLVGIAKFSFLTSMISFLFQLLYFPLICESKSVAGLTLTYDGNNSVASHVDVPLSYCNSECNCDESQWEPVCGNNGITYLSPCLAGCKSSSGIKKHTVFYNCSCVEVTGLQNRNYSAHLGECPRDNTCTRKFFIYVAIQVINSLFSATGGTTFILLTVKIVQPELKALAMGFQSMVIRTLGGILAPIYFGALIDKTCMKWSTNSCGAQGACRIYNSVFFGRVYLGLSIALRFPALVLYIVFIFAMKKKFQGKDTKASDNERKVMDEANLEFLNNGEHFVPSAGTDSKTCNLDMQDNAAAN
# Experimental: as §4
# ABCB1 = experiment: Induction assay in LS180 cells, ABCB1 mRNA (real-time RT-PCR); assay type: cell-based, human; settings: LS180, 4 days; hydroxychloroquine 1, 2, 10, 20 µM; rifampicin 20 µM
# Experimental: as §1, §2
# as §3, with “The results are therefore corrected for sample inhomogeneities and variance caused by detection. All samples were amplified in duplicate and the mean of the technical duplicate was used for further calculation.” left out
# all cell lines used = experiment: Cytotoxicity Detection Kit (LDH release); assay type: cell-based; settings: up to 100 µM
# Description: The toxic effects of tested compounds can negatively influence transporter inhibition assays.
# human P-gp = molecular target: T4, human P-gp (Homo sapiens, UniProt P08183); experiment: P-gp inhibition, calcein-AM uptake assay in L-MDR1 vs LLC-PK1 cells; assay type: cell-based; settings: L-MDR1 cells and parental LLC-PK1; 0.01–100 µM; 0.5 µM calcein-AM
# T4 construct: expressed in transfected cells; host or cells: L-MDR1 (derived from porcine LLC-PK1)
# T4 sequence (P08183 whole entry): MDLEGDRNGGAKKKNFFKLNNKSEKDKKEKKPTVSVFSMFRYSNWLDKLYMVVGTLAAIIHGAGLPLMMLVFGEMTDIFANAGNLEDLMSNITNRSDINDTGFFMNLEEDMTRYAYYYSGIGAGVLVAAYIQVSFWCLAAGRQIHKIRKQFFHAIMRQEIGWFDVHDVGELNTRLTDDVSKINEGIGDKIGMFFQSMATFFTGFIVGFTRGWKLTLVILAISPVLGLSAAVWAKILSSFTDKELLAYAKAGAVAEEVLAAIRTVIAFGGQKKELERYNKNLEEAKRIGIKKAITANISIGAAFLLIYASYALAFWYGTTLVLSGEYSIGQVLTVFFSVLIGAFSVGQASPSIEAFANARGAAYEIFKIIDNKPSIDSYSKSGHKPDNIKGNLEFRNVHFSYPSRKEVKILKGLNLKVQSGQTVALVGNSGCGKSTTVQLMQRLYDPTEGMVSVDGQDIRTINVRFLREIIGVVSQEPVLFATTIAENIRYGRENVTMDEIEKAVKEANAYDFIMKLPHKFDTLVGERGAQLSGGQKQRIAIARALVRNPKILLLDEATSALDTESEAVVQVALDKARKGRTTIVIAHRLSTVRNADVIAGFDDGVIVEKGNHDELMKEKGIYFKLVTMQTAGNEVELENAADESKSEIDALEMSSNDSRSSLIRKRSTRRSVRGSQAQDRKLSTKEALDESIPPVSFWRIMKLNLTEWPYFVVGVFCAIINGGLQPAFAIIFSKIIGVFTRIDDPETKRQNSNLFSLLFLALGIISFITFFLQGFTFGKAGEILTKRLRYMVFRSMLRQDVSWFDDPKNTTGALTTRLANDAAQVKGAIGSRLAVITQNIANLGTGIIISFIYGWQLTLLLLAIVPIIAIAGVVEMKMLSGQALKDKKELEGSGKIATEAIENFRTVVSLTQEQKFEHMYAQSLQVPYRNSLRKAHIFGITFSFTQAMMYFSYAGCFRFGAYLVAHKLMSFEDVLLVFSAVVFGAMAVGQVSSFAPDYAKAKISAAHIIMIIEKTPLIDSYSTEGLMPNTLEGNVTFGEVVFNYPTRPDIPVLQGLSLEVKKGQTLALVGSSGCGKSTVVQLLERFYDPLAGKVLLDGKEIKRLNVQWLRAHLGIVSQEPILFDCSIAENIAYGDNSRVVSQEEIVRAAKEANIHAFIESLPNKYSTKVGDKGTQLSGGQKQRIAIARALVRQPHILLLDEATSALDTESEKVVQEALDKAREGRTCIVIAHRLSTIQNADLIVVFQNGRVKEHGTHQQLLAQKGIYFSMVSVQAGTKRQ
# Experimental: (§5) P-gp inhibition was tested with a calcein assay as published previously using two different cell systems: the L-MDR1 cell line that over-expresses human P-gp and the corresponding parental cell line LLC-PK1 [19] and the P-gp over-expressing murine monocytic cell line P388/dx and its parental counterpart cell line P388 as a control. LLC-PK1 and L-MDR1 cells were cultured under standard cell culture conditions with medium M199 supplemented with 10% FCS, 2 mM glutamine, 100 U/mL penicillin, and 100 µg/mL streptomycin sulphate. […] One day before using the cells for the calcein assay, both cell lines were fed with vincristine-free culture medium. […] One day before the inhibition assay, both P388 cell lines were set to the doxorubicin-free culture medium.
# (§6) In brief, the assay was performed in 96-well plates with a final calcein-AM concentration of 0.5 µM for the LLC cell system and 1 µM for the P388 cell system. Cells were washed with pre-warmed HBSS supplemented with 10 mM HEPES (HHBSS) and pre-incubated with this buffer for 30 min and subsequently with the test compound for 10 min (LLC cell system) or 15 min (P388 cell system). After pre-incubation, calcein-AM was added and the cells were incubated for 60 min (LLC system) or 30 min (P388 cell system) at 37 °C on a rotary shaker (Noctua, Vienna, Austria). […]
# P-gp (P388/dx cells) = experiment: P-gp inhibition, calcein-AM uptake assay in P388/dx vs P388 cells; assay type: cell-based, murine; settings: not in parental P388, 1 µM calcein-AM, IC50 could not be calculated
# Experimental: as §5, §6
# LLC-PK1 cells = experiment: Growth inhibition assay (crystal violet), parental LLC-PK1; assay type: cell-based; settings: Sus scrofa
# Experimental: (§7) Cell lines with overexpression of an efflux transporter are more resistant to the anti-proliferative effects of a compound if this compound is a substrate of the respective transporter and can be extruded from the cell. […] Reversal of drug resistance was tested by using the P-gp-specific inhibitor LY335979 (zosuquidar) or the BCRP-specific inhibitor FTC. The assay using crystal violet staining was conducted and analysed as described previously. Each experiment was performed at least in quadruplicate with n = 8 wells for each concentration (0.1–500 µM).
# [3] = tested on: L-MDR1 cells (over-expression of human P-gp); experiment: Growth inhibition assay (crystal violet), P-gp over-expressing L-MDR1; assay type: cell-based; settings: growth inhibition L-MDR1 vs LLC-PK1 with and without LY335979
# Experimental: as §7
# [4] = tested on: P-gp (substrate test by growth inhibition); experiment: as above; assay type: cell-based; settings: pig, L-MDR1 cells (LLC-PK1 over-expressing human P-gp)
# Experimental: as §7
# MDCKII cells = experiment: Growth inhibition assay (crystal violet), parental MDCKII; assay type: cell-based; settings: Canis lupus familiaris, MDCK-II
# Experimental: as §7
# [5] = tested on: BCRP (substrate test by growth inhibition); experiment: Growth inhibition assay (crystal violet), BCRP over-expressing MDCKII-BCRP; assay type: cell-based; settings: dog, MDCKII-BCRP cells (MDCKII over-expressing human BCRP)
# Experimental: as §7
# [6] = tested on: MDCKII-BCRP cells (over-expressing human BCRP); experiment: as above; assay type: cell-based; settings: growth inhibition MDCKII-BCRP vs MDCKII with and without FTC
# Experimental: as §7
# LS180 cells = experiment: Growth inhibition in LS180 cells (crystal violet); assay type: cell-based; settings: Homo sapiens
# Experimental: Proliferation was quantified by crystal violet staining and the assays were conducted as described previously. Each concentration was tested in octuplet and each experiment was performed in quadruplicate.
# CYP3A4 = tested on: CYP3A4
# Experimental: as §1, §2
# as §3, with “The results are therefore corrected for sample inhomogeneities and variance caused by detection. All samples were amplified in duplicate and the mean of the technical duplicate was used for further calculation.” left out
# [7] = cited from earlier work
# OATP1B3 [8] = settings: at 10 µM; cited from earlier work
# OATP2B1 [9] = settings: at 10 µM; cited from earlier work
# [10] = tested on: organic anion transporters (OATs); settings: cited from earlier work
# [11] = tested on: organic cation transporters (OCTs); settings: cited from earlier work
# [12] = tested on: organic cation/carnitine transporters (OCTNs); settings: cited from earlier work
# OATP1A2 = settings: uptake of all-trans-retinol in vitro; cited from earlier work
# P-gp = tested on: P-gp; parameters: method as in PMID 7113754; settings: two case reports; cited from earlier work
# [13] = 0.1–100 µM, 8-FcA uptake, 10 min
structure (smiles),measurement,setting,value
COc1ccc2[nH]c([S+]([O-])Cc3ncc(C)c(OC)c3C)nc2c1 (centres unmarked) [omeprazole],ABCG2 mRNA expression,ABCG2,significantly up-regulated
same,CYP1A1 mRNA expression,CYP1A1,significantly up-regulated
same,CYP1A2 mRNA expression,CYP1A2,significantly up-regulated
C[C@@H]1O[C@@H](O[C@H]2[C@H](Oc3cc(O)c4c(c3)O[C@H](c3ccc(O)cc3)CC4=O)O[C@H](CO)[C@@H](O)[C@@H]2O)[C@H](O)[C@H](O)[C@H]1O [naringin],"inhibition at 10 min, 1 mM","OATP2B1 [1]; human, probe DBF (1 µM), 1 mM, positive control",70%
CO[C@H]1/C=C/O[C@@]2(C)Oc3c(C)c(O)c4c(O)c(c(/C=N/N5CCN(C)CC5)c(O)c4c3C2=O)NC(=O)/C(C)=C\C=C\[C@H](C)[C@H](O)[C@@H](C)[C@@H](O)[C@@H](C)[C@H](OC(C)=O)[C@@H]1C [rifampicin],"inhibition at 10 min, 20 µM","OATP1B1; human, HEK293 cells stably transfected with OATP1B1 (HEK-OATP1B1), probe 8-FcA, 20 µM, positive control",80%
same,"inhibition at 10 min, 20 µM","OATP1B3 [2]; human, HEK293 cells stably transfected with OATP1B3 (HEK-OATP1B3), probe 8-FcA, 20 µM, positive control",90%
same,ABCB1 mRNA expression,ABCB1,significantly up-regulated
same,ABCG2 mRNA expression,ABCG2,slightly
CCN(CCO)CCCC(C)Nc1ccnc2cc(Cl)ccc12 (centres unmarked) [hydroxychloroquine],toxic effects (LDH release),all cell lines used,no toxic effects
same,effect on intracellular calcein fluorescence (P-gp inhibition),human P-gp,did not affect intracellular calcein fluorescence
same,concentrations at which intracellular calcein fluorescence was increased (weak P-gp inhibition),P-gp (P388/dx cells),higher than 10 µM
same,OATP1B1 inhibition,OATP1B1; [13],did not inhibit
same,OATP1B3 inhibition,OATP1B3 [2]; [13],did not inhibit
same,OATP2B1 inhibition,"OATP2B1 [1]; 0.1–100 µM, 1 µM DBF uptake, 10 min",did not inhibit
same,IC50,"LLC-PK1 cells; LLC-PK1, LLC-PK1",82 ± 10 µM
same,IC50,"LLC-PK1 cells; LLC-PK1, LLC-PK1 + LY335979 (P-gp inhibitor)",93 ± 2 µM
same,P-gp substrate characteristics,[3],substrate of the efflux transporter P-gp
same,IC50,[4],427 ± 16 µM
same,IC50,"[4]; with LY335979 (zosuquidar), concentration not given, L-MDR1 + LY335979 (P-gp inhibitor)",90 ± 1 µM
same,IC50,MDCKII cells,89 ± 12 µM
same,IC50,[5],88 ± 9 µM
same,IC50,"[5]; with FTC, concentration not given, MDCKII-BCRP + FTC",92 ± 5 µM
same,BCRP substrate characteristics,[6],not transported by BCRP
same,IC20,LS180 cells,22.5 ± 7.3 µM
same,CYP3A4 mRNA expression,CYP3A4,no significant effect
same,ABCB1 mRNA expression,ABCB1,no significant effect
same,ABCG2 mRNA expression,ABCG2,no significant effect
same,CYP1A1 mRNA expression,CYP1A1,no significant effect
same,CYP1A2 mRNA expression,CYP1A2,no significant effect
same,blood concentrations at steady-state,[7]; 400 mg/day,up to 9 µM
same,volume of distribution,[7]; in blood,5522 L
same,volume of distribution,[7]; in plasma,"44,257 L"
same,concentration within lysosomes at steady-state (postulated),[7]; lysosomes,80000 µM
same,average intracellular concentration at steady-state (postulated),[7]; tissue/cells,1 mM
same,OATP1B3 inhibition,OATP1B3 [8],about 20%
same,OATP2B1 inhibition,OATP2B1 [9],about 20%
same,inhibition of organic anion transporters (OATs),[10],weak inhibition
same,inhibition of organic cation transporters (OCTs),[11],no inhibition
same,inhibition of organic cation/carnitine transporters (OCTNs),[12],no inhibition
same,OATP1A2 inhibition,OATP1A2,competitive inhibitor
same,effect on digoxin plasma concentrations during concurrent therapy,P-gp,increased plasma concentrations of digoxin
